In ChEMBL document CHEMBL3885861, “Open TG-GATES”:

Organism: Rattus norvegicus
Assay: Open TG-GATES - Regimen: Daily Repeat
Type: toxicity, organism-based, Sprague-Dawley
Parameters: regimen Daily Repeat, gender Male, age 6 weeks
Settings: in vivo, po, 0 mg/kg, route gavage, dose level Control; for APTT / Bas / Eos / Fbg / Hb / Ht / Lym / MCH / MCHC / MCV / Mono / Neu / PT / Plat / RBC / Ret / WBC: tissue Blood; for KIDNEY_L / KIDNEY_R / KIDNEY_TOTAL: tissue Kidney; for LIVER: tissue Liver; for A/G / ALP / ALT / AST / BUN / CRE / Ca / Cl / DBIL / GLC / IP / K / LDH / Na / PL / RALB / TBIL / TC / TG / TP / gamma-GTP: tissue Plasma

CCN(CC)N=O [N-NITROSODIETHYLAMINE]
TERMINAL_BW (72 h, time 3 day): 240.5 g
APTT (72 h, time 3 day): 18.3 s
Bas (72 h, time 3 day): 0.8%
Eos (72 h, time 3 day): 1.2%
Fbg (72 h, time 3 day): 218.2 mg/dL
Hb (72 h, time 3 day): 13.8 g/dL
Ht (72 h, time 3 day): 39.7%
Lym (72 h, time 3 day): 77.6%
MCH (72 h, time 3 day): 21.7 pg
MCHC (72 h, time 3 day): 34.8%
MCV (72 h, time 3 day): 62.3 fL
Mono (72 h, time 3 day): 2.6%
Neu (72 h, time 3 day): 17.6%
PT (72 h, time 3 day): 12 s
Plat (72 h, time 3 day): 135 x10_4/uL
RBC (72 h, time 3 day): 638.8 x10_4/ul
Ret (72 h, time 3 day): 5.8%
WBC (72 h, time 3 day): 87.8 x10_2/uL
KIDNEY_L (72 h, time 3 day): 1 g
KIDNEY_R (72 h, time 3 day): 1 g
KIDNEY_TOTAL (72 h, time 3 day): 2 g
LIVER (72 h, time 3 day): 10.5 g
A/G (72 h, time 3 day): 1.6
ALP (72 h, time 3 day): 962 IU/L
ALT (72 h, time 3 day): 35.8 IU/L
AST (72 h, time 3 day): 67 IU/L
BUN (72 h, time 3 day): 16.2 mg/dL
CRE (72 h, time 3 day): 0.4 mg/dL
Ca (72 h, time 3 day): 10.8 mg/dL
Cl (72 h, time 3 day): 102.2 meq/L
DBIL (72 h, time 3 day): 0.09 mg/dL
GLC (72 h, time 3 day): 200.6 mg/dL
IP (72 h, time 3 day): 8 mg/dL
K (72 h, time 3 day): 4 meq/L
LDH (72 h, time 3 day): 211.2 IU/L
Na (72 h, time 3 day): 140.2 meq/L
PL (72 h, time 3 day): 153 mg/dL
RALB (72 h, time 3 day): 3.4 g/dL
TBIL (72 h, time 3 day): 0.1 mg/dL
TC (72 h, time 3 day): 82.6 mg/dL
TG (72 h, time 3 day): 79.2 mg/dL
TP (72 h, time 3 day): 5.6 g/dL
gamma-GTP (72 h, time 3 day): 1 IU/L
TERMINAL_BW ([…], time 7 day): 275.8 g
TERMINAL_BW ([…], time 14 day): 325.9 g
TERMINAL_BW ([…], time 28 day): 396.4 g
APTT ([…], time 7 day): 20.6 s
Bas ([…], time 7 day): 0%
Eos ([…], time 7 day): 1%
Fbg ([…], time 7 day): 217.4 mg/dL
Hb ([…], time 7 day): 13.5 g/dL
Ht ([…], time 7 day): 38.7%
Lym ([…], time 7 day): 79.6%
MCH ([…], time 7 day): 21.3 pg
MCHC ([…], time 7 day): 34.9%
MCV ([…], time 7 day): 61 fL
Mono ([…], time 7 day): 2.4%
Neu ([…], time 7 day): 16%
PT ([…], time 7 day): 11.8 s
Plat ([…], time 7 day): 142.9 x10_4/uL
RBC ([…], time 7 day): 634 x10_4/ul
Ret ([…], time 7 day): 5.8%
WBC ([…], time 7 day): 109.2 x10_2/uL
APTT ([…], time 14 day): 21.7 s
Bas ([…], time 14 day): 1%
Eos ([…], time 14 day): 0.8%
Fbg ([…], time 14 day): 216.6 mg/dL
Hb ([…], time 14 day): 14.7 g/dL
Ht ([…], time 14 day): 41.9%
Lym ([…], time 14 day): 82%
MCH ([…], time 14 day): 21 pg
MCHC ([…], time 14 day): 35%
MCV ([…], time 14 day): 60.1 fL
Mono ([…], time 14 day): 1.8%
Neu ([…], time 14 day): 13.8%
PT ([…], time 14 day): 12 s
Plat ([…], time 14 day): 124.2 x10_4/uL
RBC ([…], time 14 day): 697 x10_4/ul
Ret ([…], time 14 day): 4.3%
WBC ([…], time 14 day): 94.2 x10_2/uL
APTT ([…], time 28 day): 21.9 s
Bas ([…], time 28 day): 0.8%
Eos ([…], time 28 day): 1.4%
Fbg ([…], time 28 day): 225 mg/dL
Hb ([…], time 28 day): 15.5 g/dL
Ht ([…], time 28 day): 42.3%
Lym ([…], time 28 day): 80.8%
MCH ([…], time 28 day): 20.4 pg
MCHC ([…], time 28 day): 36.6%
MCV ([…], time 28 day): 55.8 fL
Mono ([…], time 28 day): 2%
Neu ([…], time 28 day): 14.8%
PT ([…], time 28 day): 11.6 s
Plat ([…], time 28 day): 108.6 x10_4/uL
RBC ([…], time 28 day): 758.6 x10_4/ul
Ret ([…], time 28 day): 2.6%
WBC ([…], time 28 day): 81 x10_2/uL
KIDNEY_L ([…], time 7 day): 1.2 g
KIDNEY_R ([…], time 7 day): 1.1 g
KIDNEY_TOTAL ([…], time 7 day): 2.3 g
KIDNEY_L ([…], time 14 day): 1.3 g
KIDNEY_R ([…], time 14 day): 1.3 g
KIDNEY_TOTAL ([…], time 14 day): 2.6 g
KIDNEY_L ([…], time 28 day): 1.3 g
KIDNEY_R ([…], time 28 day): 1.3 g
KIDNEY_TOTAL ([…], time 28 day): 2.7 g
LIVER ([…], time 7 day): 12.4 g
LIVER ([…], time 14 day): 13.5 g
LIVER ([…], time 28 day): 14.9 g
A/G ([…], time 7 day): 1.5
ALP ([…], time 7 day): 863.2 IU/L
ALT ([…], time 7 day): 32.2 IU/L
AST ([…], time 7 day): 66.2 IU/L
BUN ([…], time 7 day): 15 mg/dL
CRE ([…], time 7 day): 0.4 mg/dL
Ca ([…], time 7 day): 10.4 mg/dL
Cl ([…], time 7 day): 103.2 meq/L
DBIL ([…], time 7 day): 0.1 mg/dL
GLC ([…], time 7 day): 194.8 mg/dL
IP ([…], time 7 day): 8.5 mg/dL
K ([…], time 7 day): 4.1 meq/L
LDH ([…], time 7 day): 190 IU/L
Na ([…], time 7 day): 141 meq/L
PL ([…], time 7 day): 153 mg/dL
RALB ([…], time 7 day): 3.3 g/dL
TBIL ([…], time 7 day): 0.2 mg/dL
TC ([…], time 7 day): 83.2 mg/dL
TG ([…], time 7 day): 102.8 mg/dL
TP ([…], time 7 day): 5.5 g/dL
gamma-GTP ([…], time 7 day): 1 IU/L
A/G ([…], time 14 day): 1.5
ALP ([…], time 14 day): 688.8 IU/L
ALT ([…], time 14 day): 31 IU/L
AST ([…], time 14 day): 64.2 IU/L
BUN ([…], time 14 day): 15 mg/dL
CRE ([…], time 14 day): 0.5 mg/dL
Ca ([…], time 14 day): 10.6 mg/dL
Cl ([…], time 14 day): 101.6 meq/L
DBIL ([…], time 14 day): 0.086 mg/dL
GLC ([…], time 14 day): 205 mg/dL
IP ([…], time 14 day): 8 mg/dL
K ([…], time 14 day): 4 meq/L
LDH ([…], time 14 day): 198.4 IU/L
Na ([…], time 14 day): 141.6 meq/L
PL ([…], time 14 day): 144.4 mg/dL
RALB ([…], time 14 day): 3.4 g/dL
TBIL ([…], time 14 day): 0.1 mg/dL
TC ([…], time 14 day): 72.8 mg/dL
TG ([…], time 14 day): 93.6 mg/dL
TP ([…], time 14 day): 5.8 g/dL
gamma-GTP ([…], time 14 day): 1 IU/L
A/G ([…], time 28 day): 1.3
ALP ([…], time 28 day): 606.8 IU/L
ALT ([…], time 28 day): 33 IU/L
AST ([…], time 28 day): 63.6 IU/L
BUN ([…], time 28 day): 17.4 mg/dL
CRE ([…], time 28 day): 0.5 mg/dL
Ca ([…], time 28 day): 10.3 mg/dL
Cl ([…], time 28 day): 103 meq/L
DBIL ([…], time 28 day): 0.092 mg/dL
GLC ([…], time 28 day): 208.4 mg/dL
